Where a name gives a salt, the structure may show the parent alone.
Key:
[1] = test system: human LDL; assay: Modification (peroxidation) of human LDL by copper sulphate, MDA production; type: biochemical; conditions: for activity compared with probucol or vitamin E in protecting human LDL: human LDL in vitro, modifications induced by copper sulphate and endothelial cells; for IC50: inhibition of human LDL oxidation induced by copper sulphate (5.10^-6 M), 24 hours, MDA production, read-out: IC50 (M) Cu^2+ (converted)
Protocol: (§1) The activity of the compounds was tested in comparison with probucol and vitamin E taken as reference products.
1.1.1 Modification of LDL by copper sulphate
Human LDL are incubated for 24 hours in the presence of copper sulphate (5.10^-6 M) and in the absence or in the presence of the test compounds (10^-9 M to 10^-4 M).
After incubation, the peroxidation of the LDL is evaluated by agar gel electrophoresis and by the formation of one of the products of lipid peroxidation: malonic dialdehyde (MDA) (Parthasarathy S., Young S. G., Witztum J. L., Pittman R. C., and Steinberg D.; J. Clin. Invest. 77; 641-644, 1986).
(§2) The activity of the test compounds is evaluated by calculating the concentrations that reduce by 50% (IC50) the production of MDA compared with the control experiments without those compounds.

[2] = test system: human LDL; assay: Modification (peroxidation) of human LDL by endothelial cells from the rabbit aorta, MDA production; type: cell-based; conditions: for IC50: inhibition of human LDL oxidation induced by endothelial cells (rabbit aorta), 24 hours, MDA production
Protocol: as §1
1.1.2 Modification of LDL by endothelial cells
Human LDL are incubated for 24 hours in the presence of endothelial cells from the rabbit aorta (RECL B4 line provided by Professor Steinberg, U.S.A), and in the absence or in the presence of the test compounds (10^-9 M to 10^-4 M).
After incubation, the peroxidation of the LDL is evaluated by agar gel electrophoresis and by the formation of one of the products of lipid peroxidation: malonic dialdehyde (MDA) (Steinbrecher U. P., Parthasarathy S., Leake D. S., Witztum J. L., and Steinberg D.; Proc. Nat. Acad. Sci. U.S.A 81, 3883-3887, 1984).
as §2

[3] = test system: LDL of Watanabe rabbits; assay: Ex vivo study: peroxidation by copper sulphate of LDL from orally treated Watanabe rabbits, MDA production; type: in vivo
Protocol: as §1
2.1 Materials and methods
Watanabe rabbits (genetically hyperlipidaemic rabbits) weighing from 3 kg to 5 kg are used. […]
After treatment, the LDL of the animals are prepared by ultracentrifugation and subjected to oxidation with copper sulphate (5.10^-6 M). The lipid peroxidation of the LDL is evaluated after various periods of incubation with copper sulphate (from 2 to 24 hours) by measuring the formation of MDA.
Table B groups the MDA production values according to the period of incubation with copper sulphate of the LDL originating from control animals and from animals treated with the compound of Example 1 at different doses or with probucol.

IC50 [1] [M]	IC50 [2] [nM]	Compound	activity compared with probucol or vitamin E in protecting human LDL [1]	other results
3e-06	4000	CC(C)(Sc1cc(C(C)(C)C)c(O)c(C(C)(C)C)c1)Sc1cc(C(C)(C)C)c(O)c(C(C)(C)C)c1 [PROBUCOL, probucol, reference compound]		retardation of LDL peroxidation compared with control animals ([3]; 250 mg/kg/day): approximately 2 hours; MDA production ([3]; 250 mg/kg/day orally, 2 hours incubation of LDL with copper sulphate): 1.85 nmol/mg proteins; MDA production ([3]; 250 mg/kg/day orally, 4 hours incubation of LDL with copper sulphate): 3.50 nmol/mg proteins; MDA production ([3]; 250 mg/kg/day orally, 6 hours incubation of LDL with copper sulphate): 4.90 nmol/mg proteins; MDA production ([3]; 250 mg/kg/day orally, 8 hours incubation of LDL with copper sulphate): 12.26 nmol/mg proteins; MDA production ([3]; 250 mg/kg/day orally, 24 hours incubation of LDL with copper sulphate): 23.81 nmol/mg proteins
> 0.0001	4000	vitamin E [reference compound]		
6e-08		Cc1c(C)c2c(c(C)c1O)CCC(C)(CCCc1ccc(OC(C)(C)C(=O)O)cc1)O2 (racemic) [Example 18, Tert-butylamine (R,S)-2-{4-3-(6-hydroxy-2,5,7,8-tetramethylchroman-2-yl)propyl!phenoxy}isobutyrate]		
2e-08	7	CC(C)(Oc1ccc(CCOc2cc(C(C)(C)C)c(O)c(C(C)(C)C)c2)cc1)C(=O)O [Example 10, 2-{4-2-(3,5-di-tert-butyl-4-hydroxyphenoxy)ethyl!phenoxy}isobutyric acid]		
4e-08		Cc1c(C)c2c(c(C)c1O)CCC(C)(/C=C\Cc1ccc(OC(C)(C)C(=O)O)cc1)O2 (racemic) [Example 15, Tert-butylamine (Z)-(R,S)-2-{4-3-(6-hydroxy-2,5,7,8-tetramethylchroman-2-yl)prop-2-en-1-yl!phenoxy}isobutyrate]		

Continued, compound first:

Compound	IC50 [1] [M]	IC50 [2] [nM]	activity compared with probucol or vitamin E in protecting human LDL [1]	other results
CC(C)(Oc1ccc(CCCSc2cc(C(C)(C)C)c(O)c(C(C)(C)C)c2)cc1)C(=O)O [Example 5, tert-butylamine salt of 2-{4-3-(3,5-di-tert-butyl-4-hydroxyphenylthio)propyl!phenoxy}isobutyric acid]	4e-08		greater activity	
CC(C)(Oc1ccc(CSc2cc(C(C)(C)C)c(O)c(C(C)(C)C)c2)cc1)C(=O)O [Example 4, 2-4-(3,5-di-tert-butyl-4-hydroxyphenylthiomethyl)phenoxy!isobutyric acid]	3e-08		greater activity	
Cc1cc(OCCc2ccc(OC(C)(C)C(=O)O)cc2)c(C)c(C)c1O [Example 9, 2-{4-2-(4-hydroxy-2,3,5-trimethylphenoxy)ethyl!phenoxy}isobutyric acid]	5e-07			
CC(C)(Oc1ccc(CCSc2cc(C(C)(C)C)c(O)c(C(C)(C)C)c2)cc1)C(=O)O [Example 1, 2-{4-2-(3,5-di-tert-butyl-4-hydroxyphenylthio)ethyl!phenoxy}isobutyric acid]	5e-08	3	greater activity	times more effective than is probucol (test using endothelial cells) ([2]; endothelial cells, compared with probucol): 1000 times; MDA production ([3]; 50 mg/kg/day orally, 3 days, 2 hours incubation of LDL with copper sulphate): 0.66 nmol/mg proteins; MDA production ([3]; 50 mg/kg/day orally, 3 days, 4 hours incubation of LDL with copper sulphate): 0.35 nmol/mg proteins; MDA production ([3]; 50 mg/kg/day orally, 3 days, 6 hours incubation of LDL with copper sulphate): 0.31 nmol/mg proteins; MDA production ([3]; 50 mg/kg/day orally, 3 days, 8 hours incubation of LDL with copper sulphate): 0.26 nmol/mg proteins; MDA production ([3]; 50 mg/kg/day orally, 3 days, 24 hours incubation of LDL with copper sulphate): 0.86 nmol/mg proteins; inhibition of LDL peroxidation induced by copper sulphate ([3]; from a dose of 50 mg/kg/day): completely inhibits
Cc1cc(SCCc2ccc(OC(C)(C)C(=O)O)cc2)c(C)c(C)c1O [Example 3, 2-{4-2-(4-hydroxy-2,3,5-trimethylphenylthio)ethyl!phenoxy}isobutyric acid]	9e-08		greater activity	

Reference: US5512595A, “Substituted phenoxyisobutyric acids and esters” (Adir et Compagnie, priority 1993, dated 1996)
